Measurements as given in patent publication US10292412B2, “High solubility natural sweetener compositions” (KRAFT FOODS GLOBAL BRANDS LLC, priority 2012, dated 2019).

Assay: Example 2: solubility of rebaudioside A in liquid concentrates with varying water, acid and alcohol
Format: physicochemical
Design: scale not given here
Procedure: Liquid concentrate formulations were prepared including varying levels of rebaudioside A, water, alcohol, and acid. The solubility was measured at various concentrations of each of the components and the results are included in the tables below: […]

C=C1C[C@@]23CC[C@H]4[C@@](C)(CCC[C@@]4(C)C(=O)O[C@@H]4O[C@H](CO)[C@@H](O)[C@H](O)[C@H]4O)[C@@H]2CC[C@]1(O[C@@H]1O[C@H](CO)[C@@H](O)[C@H](O[C@@H]2O[C@H](CO)[C@@H](O)[C@H](O)[C@H]2O)[C@H]1O[C@@H]1O[C@H](CO)[C@@H](O)[C@H](O)[C@H]1O)C3 [Reb A, rebaudioside A]
Response 1 Solubility (Water/Citric Acid/Ethanol (190 Proof)/RebA 0.00/0/92.44/7.5600 ml): 5
Response 1 Solubility (Water/Citric Acid/Ethanol (190 Proof)/RebA 0.00/21.92/77.48/0.6048 ml): 1
Response 1 Solubility (Water/Citric Acid/Ethanol (190 Proof)/RebA 39.71/32.88/19.85/7.5600 ml): 1
Response 1 Solubility (Water/Citric Acid/Ethanol (190 Proof)/RebA 47.96/0/47.96/4.0824 ml): 1
Response 1 Solubility (Water/Citric Acid/Ethanol (190 Proof)/RebA 59.56/32.88/0.00/7.5600 ml): 2
Response 1 Solubility (Water/Citric Acid/Propylene Glycol/RebA 0.00/0/92.44/7.5600 ml): Insoluble
Response 1 Solubility (Water/Citric Acid/Propylene Glycol/RebA 0.00/0/99.40/0.6048 ml): 1
Response 1 Solubility (Water/Citric Acid/Propylene Glycol/RebA 0.00/21.92/77.48/0.6048 ml): Insoluble
Response 1 Solubility (Water/Citric Acid/Propylene Glycol/RebA 33.13/0/66.26/0.6048 ml): 1
Response 1 Solubility (Water/Citric Acid/Propylene Glycol/RebA 33.13/10.96/55.30/0.6048 ml): 1
Response 1 Solubility (Water/Citric Acid/Propylene Glycol/RebA 39.71/32.88/19.85/7.5600 ml): Insoluble
Response 1 Solubility (Water/Citric Acid/Propylene Glycol/RebA 47.96/0/47.96/4.0824 ml): 2
Response 1 Solubility (Water/Citric Acid/Propylene Glycol/RebA 49.65/24.66/19.87/5.8212 ml): 2
Response 1 Solubility (Water/Citric Acid/Propylene Glycol/RebA 55.30/10.96/33.13/0.6048 ml): 1
Response 1 Solubility (Water/Citric Acid/Propylene Glycol/RebA 59.56/32.88/0.00/7.5600 ml): 2
Response 1 Solubility (Water/Citric Acid/Propylene Glycol/RebA 59.61/16.44/19.87/4.0824 ml): 2
Response 1 Solubility (Water/Citric Acid/Propylene Glycol/RebA 66.26/0/33.13/0.6048 ml): 1
Response 1 Solubility (Water/Citric Acid/Propylene Glycol/RebA 66.52/32.88/0.00/0.6048 ml): 1
Response 1 Solubility (Water/Citric Acid/Propylene Glycol/RebA 69.57/8.22/19.87/2.3436 ml): 3
Response 1 Solubility (Water/Citric Acid/Propylene Glycol/RebA 79.48/16.44/0.00/4.0824 ml): 3
Response 1 Solubility (Water/Citric Acid/Propylene Glycol/RebA 92.44/0/0.00/7.5600 ml): 5
Response 1 Solubility (Water/Citric Acid/Propylene Glycol/RebA 99.40/0/0.00/0.6048 ml): 3
Response 1 Solubility (Water/Malic Acid/Ethanol (200 Proof)/RebA 0.00/0/92.44/7.5600 ml): Insoluble
Response 1 Solubility (Water/Malic Acid/Ethanol (200 Proof)/RebA 0.00/0/99.40/0.6048 ml): Insoluble
Response 1 Solubility (Water/Malic Acid/Ethanol (200 Proof)/RebA 0.00/10.96/88.44/0.6048 ml): 5
Response 1 Solubility (Water/Malic Acid/Ethanol (200 Proof)/RebA 55.30/10.96/33.13/0.6048 ml): 1
Response 1 Solubility (Water/Phosphoric Acid/Ethanol (190 Proof)/RebA 0.00/0.00/92.44/7.56 ml): Insoluble
Response 1 Solubility (Water/Phosphoric Acid/Ethanol (190 Proof)/RebA 0.00/0.00/99.40/0.60 ml): Insoluble
Response 1 Solubility (Water/Phosphoric Acid/Ethanol (190 Proof)/RebA 0.00/30.81/61.63/7.56 ml): Insoluble
Response 1 Solubility (Water/Phosphoric Acid/Ethanol (190 Proof)/RebA 0.00/33.13/66.26/0.60 ml): 1
Response 1 Solubility (Water/Phosphoric Acid/Ethanol (190 Proof)/RebA 0.00/47.96/47.96/4.08 ml): Insoluble
Response 1 Solubility (Water/Phosphoric Acid/Ethanol (190 Proof)/RebA 0.00/66.26/33.13/0.60 ml): 1
Response 1 Solubility (Water/Phosphoric Acid/Ethanol (190 Proof)/RebA 0.00/92.44/0.00/7.56 ml): Insoluble
Response 1 Solubility (Water/Phosphoric Acid/Ethanol (190 Proof)/RebA 0.00/99.40/0.00/0.60 ml): Insoluble
Response 1 Solubility (Water/Phosphoric Acid/Ethanol (190 Proof)/RebA 15.99/15.99/62.21/5.82 ml): 2
Response 1 Solubility (Water/Phosphoric Acid/Ethanol (190 Proof)/RebA 15.99/39.10/39.10/5.82 ml): 2
Response 1 Solubility (Water/Phosphoric Acid/Ethanol (190 Proof)/RebA 15.99/62.21/15.99/5.82 ml): Insoluble
Response 1 Solubility (Water/Phosphoric Acid/Ethanol (190 Proof)/RebA 30.81/61.63/0.00/7.56 ml): Insoluble
Response 1 Solubility (Water/Phosphoric Acid/Ethanol (190 Proof)/RebA 33.13/0.00/66.26/0.60 ml): 1
Response 1 Solubility (Water/Phosphoric Acid/Ethanol (190 Proof)/RebA 33.13/33.13/33.13/0.60 ml): 1
Response 1 Solubility (Water/Phosphoric Acid/Ethanol (190 Proof)/RebA 33.13/66.26/0.00/0.60 ml): Insoluble
Response 1 Solubility (Water/Phosphoric Acid/Ethanol (190 Proof)/RebA 39.10/15.99/39.10/5.82 ml): 2
Response 1 Solubility (Water/Phosphoric Acid/Ethanol (190 Proof)/RebA 39.10/39.10/15.99/5.82 ml): Insoluble
Response 1 Solubility (Water/Phosphoric Acid/Ethanol (190 Proof)/RebA 47.96/0.00/47.96/4.08 ml): 1
Response 1 Solubility (Water/Phosphoric Acid/Ethanol (190 Proof)/RebA 47.96/47.96/0.00/4.08 ml): Insoluble
Response 1 Solubility (Water/Phosphoric Acid/Ethanol (190 Proof)/RebA 61.63/0.00/30.81/7.56 ml): 4
Response 1 Solubility (Water/Phosphoric Acid/Ethanol (190 Proof)/RebA 61.63/30.81/0.00/7.56 ml): Insoluble
Response 1 Solubility (Water/Phosphoric Acid/Ethanol (190 Proof)/RebA 62.21/15.99/15.99/5.82 ml): 5
Response 1 Solubility (Water/Phosphoric Acid/Ethanol (190 Proof)/RebA 66.26/0.00/33.13/0.60 ml): 1
